Assay results reported in paper PMC12822916 (Cell reports, 2025).

Biological target: eIF3e (Homo sapiens, UniProt P60228)
Assay: isothermal dose-response fingerprint CETSA, western blot
Assay type: biochemical
Settings: MCF7-SIX1 lysate, 10 min at room temperature with compound, heated at 53 °C for 3 min; pH 7.5 Tris, 100 mM NaCl, 1 mM DTT

Sequence of eIF3e (P60228 2-445): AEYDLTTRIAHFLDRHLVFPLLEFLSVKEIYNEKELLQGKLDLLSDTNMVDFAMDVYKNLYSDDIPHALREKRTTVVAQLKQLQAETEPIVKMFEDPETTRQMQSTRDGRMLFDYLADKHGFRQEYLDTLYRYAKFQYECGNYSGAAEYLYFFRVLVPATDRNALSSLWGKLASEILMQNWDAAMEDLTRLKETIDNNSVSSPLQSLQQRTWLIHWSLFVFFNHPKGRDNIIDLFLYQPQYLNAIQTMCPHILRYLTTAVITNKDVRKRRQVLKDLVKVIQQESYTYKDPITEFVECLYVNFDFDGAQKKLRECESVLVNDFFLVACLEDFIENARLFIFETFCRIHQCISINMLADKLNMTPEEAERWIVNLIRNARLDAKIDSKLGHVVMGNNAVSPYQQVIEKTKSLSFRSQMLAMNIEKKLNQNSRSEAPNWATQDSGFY

SMILES: COc1ccc(NC(=O)c2cccc(-n3cccc3)c2)cc1S(=O)(=O)N1CCOCC1 [compound 8430, NCGC00378430]
- EC50: 13.6 µM
